Test results taken from PubChem BioAssay (NCI).
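Protocol summary: plate cells (96-well), add compound at 5 concentrations, incubate 48 h, interpolate endpoints linearly. GI50 is the concentration that inhibits growth by half. TGI denotes the concentration required for complete inhibition of growth.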

Key:
Assay in all cases: DTP human tumour cell line panel, 48 h
RPMI-8226 leukemia = test system: RPMI-8226 leukemia
HT29 colon = test system: HT29 colon
T-47D breast = test system: T-47D breast
DU-145 prostate = test system: DU-145 prostate
SF-268 CNS = test system: SF-268 CNS
HL-60(TB) leukemia = test system: HL-60(TB) leukemia
RXF 393 renal = test system: RXF 393 renal
NCI-H522 lung = test system: NCI-H522 lung
SNB-75 CNS = test system: SNB-75 CNS
HCT-15 colon = test system: HCT-15 colon
IGROV1 ovarian = test system: IGROV1 ovarian
HS 578T breast = test system: HS 578T breast
MOLT-4 leukemia = test system: MOLT-4 leukemia
SF-295 CNS = test system: SF-295 CNS
BT-549 breast = test system: BT-549 breast
NCI-H23 lung = test system: NCI-H23 lung
HOP-92 NSCLC = test system: HOP-92 NSCLC
OVCAR-8 ovarian = test system: OVCAR-8 ovarian
OVCAR-3 ovarian = test system: OVCAR-3 ovarian
UACC-257 melanoma = test system: UACC-257 melanoma
SF-539 CNS = test system: SF-539 CNS
CCRF-CEM leukemia = test system: CCRF-CEM leukemia
A549 NSCLC = test system: A549 NSCLC
UO-31 renal = test system: UO-31 renal
LOX IMVI melanoma = test system: LOX IMVI melanoma
786-0 renal = test system: 786-0 renal
COLO 205 colon = test system: COLO 205 colon
MDA-MB-231 breast = test system: MDA-MB-231 breast
SK-MEL-5 melanoma = test system: SK-MEL-5 melanoma
MDA-MB-435 = test system: MDA-MB-435
SK-OV-3 ovarian = test system: SK-OV-3 ovarian
ACHN renal = test system: ACHN renal
UACC-62 melanoma = test system: UACC-62 melanoma
K-562 leukemia = test system: K-562 leukemia
HCC-2998 colon = test system: HCC-2998 colon
SR leukemia = test system: SR leukemia
MCF7 breast = test system: MCF7 breast
MALME-3M melanoma = test system: MALME-3M melanoma
NCI-H226 lung = test system: NCI-H226 lung
KM12 colon = test system: KM12 colon
SN12C renal = test system: SN12C renal
TK-10 renal = test system: TK-10 renal
SW-620 colon = test system: SW-620 colon
OVCAR-4 ovarian = test system: OVCAR-4 ovarian
A498 renal = test system: A498 renal
HCT-116 colon = test system: HCT-116 colon
NCI/ADR-RES ovarian = test system: NCI/ADR-RES ovarian
U251 CNS = test system: U251 CNS
M14 melanoma = test system: M14 melanoma
SK-MEL-28 melanoma = test system: SK-MEL-28 melanoma
OVCAR-5 ovarian = test system: OVCAR-5 ovarian
NCI-H460 lung = test system: NCI-H460 lung
CAKI-1 renal = test system: CAKI-1 renal
HOP-62 NSCLC = test system: HOP-62 NSCLC
PC-3 prostate = test system: PC-3 prostate
SNB-19 CNS = test system: SNB-19 CNS
SK-MEL-2 melanoma = test system: SK-MEL-2 melanoma

For `Cc1cc2cc3cc(C)c(N(C)C)cc3[n+](C)c2cc1N(C)C`, the GI50 (RPMI-8226 leukemia) was 4.54 µM, the TGI (RPMI-8226 leukemia) was > 100 µM and the GI50 (HT29 colon) was 2.46 µM. For the same compound, the TGI (HT29 colon) was > 100 µM, the GI50 (T-47D breast) was 2.94 µM and the TGI (T-47D breast) was > 100 µM. The GI50 (DU-145 prostate) was 4.87 µM, the TGI (DU-145 prostate) was 31.9 µM and the GI50 (SF-268 CNS) was 4.1 µM. The TGI (SF-268 CNS) was 20.5 µM, the GI50 (HL-60(TB) leukemia) was 3.22 µM and the TGI (HL-60(TB) leukemia) was > 100 µM. The GI50 (RXF 393 renal) was 6.09 µM, the TGI (RXF 393 renal) was 23.4 µM and the GI50 (NCI-H522 lung) was 5.35 µM. The TGI (NCI-H522 lung) was 36.1 µM, the GI50 (SNB-75 CNS) was 3.7 µM and the TGI (SNB-75 CNS) was 31.4 µM. It also gave a GI50 (HCT-15 colon) of 4.52 µM, a TGI (HCT-15 colon) of 72.8 µM and a GI50 (IGROV1 ovarian) of 5.04 µM. The TGI (IGROV1 ovarian) was > 100 µM, the GI50 (HS 578T breast) was 2.35 µM and the TGI (HS 578T breast) was 14.9 µM. For the same compound, the GI50 (MOLT-4 leukemia) was 3.58 µM, the TGI (MOLT-4 leukemia) was > 100 µM and the GI50 (SF-295 CNS) was 2.53 µM. The TGI (SF-295 CNS) was 14 µM, the GI50 (BT-549 breast) was 2.55 µM and the TGI (BT-549 breast) was 9.62 µM. For the same compound, the GI50 (NCI-H23 lung) was 2.77 µM, the TGI (NCI-H23 lung) was 31.2 µM and the GI50 (HOP-92 NSCLC) was 2.3 µM. The TGI (HOP-92 NSCLC) was 11.1 µM, the GI50 (OVCAR-8 ovarian) was 2.72 µM and the TGI (OVCAR-8 ovarian) was 14.7 µM. It also gave a GI50 (OVCAR-3 ovarian) of 3.13 µM, a TGI (OVCAR-3 ovarian) of 14 µM and a GI50 (UACC-257 melanoma) of 4.73 µM. For the same compound, the TGI (UACC-257 melanoma) was 37.7 µM, the GI50 (SF-539 CNS) was 3.05 µM and the TGI (SF-539 CNS) was 12.1 µM. The GI50 (CCRF-CEM leukemia) was 12.2 µM, the TGI (CCRF-CEM leukemia) was > 100 µM and the GI50 (A549 NSCLC) was 3.1 µM. The TGI (A549 NSCLC) was > 100 µM, the GI50 (UO-31 renal) was 5.05 µM and the TGI (UO-31 renal) was 70.7 µM. It also gave a GI50 (LOX IMVI melanoma) of 3.14 µM, a TGI (LOX IMVI melanoma) of 40.8 µM and a GI50 (786-0 renal) of 5.1 µM. It also gave a TGI (786-0 renal) of 18.8 µM, a GI50 (COLO 205 colon) of 2.51 µM and a TGI (COLO 205 colon) of 17.5 µM. It also gave a GI50 (MDA-MB-231 breast) of 3.17 µM, a TGI (MDA-MB-231 breast) of 9 µM and a GI50 (SK-MEL-5 melanoma) of 2.1 µM. For the same compound, the TGI (SK-MEL-5 melanoma) was 6.96 µM, the GI50 (MDA-MB-435) was 3.1 µM and the TGI (MDA-MB-435) was 14.9 µM. For the same compound, the GI50 (SK-OV-3 ovarian) was 5.05 µM, the TGI (SK-OV-3 ovarian) was > 100 µM and the GI50 (ACHN renal) was 3.69 µM. The TGI (ACHN renal) was > 100 µM, the GI50 (UACC-62 melanoma) was 4.91 µM and the TGI (UACC-62 melanoma) was 23.6 µM. For the same compound, the GI50 (K-562 leukemia) was 3.14 µM, the TGI (K-562 leukemia) was > 100 µM and the GI50 (HCC-2998 colon) was 3.45 µM. The TGI (HCC-2998 colon) was 16.7 µM, the GI50 (SR leukemia) was 3.16 µM and the TGI (SR leukemia) was > 100 µM. The GI50 (MCF7 breast) was 2.38 µM, the TGI (MCF7 breast) was > 100 µM and the GI50 (MALME-3M melanoma) was 3.6 µM. The TGI (MALME-3M melanoma) was 19.4 µM, the GI50 (NCI-H226 lung) was 5.68 µM and the TGI (NCI-H226 lung) was 48 µM. It also gave a GI50 (KM12 colon) of 2.72 µM, a TGI (KM12 colon) of 11.3 µM and a GI50 (SN12C renal) of 3.91 µM. The TGI (SN12C renal) was > 100 µM, the GI50 (TK-10 renal) was 5.19 µM and the TGI (TK-10 renal) was 58.4 µM. It also gave a GI50 (SW-620 colon) of 2.92 µM, a TGI (SW-620 colon) of 18 µM and a GI50 (OVCAR-4 ovarian) of 2.83 µM. The TGI (OVCAR-4 ovarian) was 34.2 µM, the GI50 (A498 renal) was 3.18 µM and the TGI (A498 renal) was 25.5 µM. For the same compound, the GI50 (HCT-116 colon) was 2.55 µM, the TGI (HCT-116 colon) was 20.7 µM and the GI50 (NCI/ADR-RES ovarian) was 22.4 µM. The TGI (NCI/ADR-RES ovarian) was > 100 µM, the GI50 (U251 CNS) was 2.05 µM and the TGI (U251 CNS) was 21.2 µM. The GI50 (M14 melanoma) was 4.68 µM, the TGI (M14 melanoma) was 19.8 µM and the GI50 (SK-MEL-28 melanoma) was 2.64 µM. For the same compound, the TGI (SK-MEL-28 melanoma) was 8.53 µM, the GI50 (OVCAR-5 ovarian) was 11.9 µM and the TGI (OVCAR-5 ovarian) was > 100 µM. For the same compound, the GI50 (NCI-H460 lung) was 2.65 µM, the TGI (NCI-H460 lung) was 11 µM and the GI50 (CAKI-1 renal) was 2.7 µM. For the same compound, the TGI (CAKI-1 renal) was > 100 µM, the GI50 (HOP-62 NSCLC) was 6.03 µM and the TGI (HOP-62 NSCLC) was 24.3 µM. For the same compound, the GI50 (PC-3 prostate) was 2.46 µM, the TGI (PC-3 prostate) was 33.8 µM and the GI50 (SNB-19 CNS) was 4.22 µM. For the same compound, the TGI (SNB-19 CNS) was > 100 µM, the GI50 (SK-MEL-2 melanoma) was 4.57 µM and the TGI (SK-MEL-2 melanoma) was > 100 µM.
